Measured values published in ChEMBL document CHEMBL1914304 (J Med Chem, 2011).

Key:
HEK293 = assay: Cytotoxicity against human HEK293 cells after 72 hrs by luminescence assay; type: cell-based; details: hek293, 72 h
Raji = assay: Cytotoxicity against human Raji cells after 72 hrs by luminescence assay; type: cell-based
HepG2 = assay: Cytotoxicity against human HepG2 cells after 72 hrs by luminescence assay; type: cell-based; details: hepg2, 72 h
[1] = Selectivity ratio of EC50 for human HepG2 cells to EC50 for Plasmodium falciparum
BJ = assay: Cytotoxicity against human BJ cells after 72 hrs by luminescence assay; type: cell-based

With `Cl.O=C(/C=C/c1ccccc1)c1ccccc1O` the Activity (HEK293) was “Non-toxic”, the Activity (Raji) was “Non-toxic” and the Activity (HepG2) was “Non-toxic”. For the same compound, the selectivity ratio [1] was greater than 10 and the Activity (BJ) was “Non-toxic”.
In the case of `Cl.O=C(/C=C/c1ccccc1)c1cc(F)ccc1O`, the Activity (HEK293) was “Non-toxic”, the Activity (Raji) was “Non-toxic” and the Activity (HepG2) was “Non-toxic”. For the same compound, the selectivity ratio [1] was greater than 10 and the Activity (BJ) was “Non-toxic”.
In the case of `Cl.O=C(/C=C/c1ccc(F)cc1)c1ccccc1O`, the Activity (HEK293) was “Non-toxic”, the Activity (Raji) was “Non-toxic” and the Activity (HepG2) was “Non-toxic”. For the same compound, the selectivity ratio [1] was greater than 10 and the Activity (BJ) was “Non-toxic”.
In the case of `Cl.O=C(/C=C/c1ccc(F)cc1)c1cc(F)ccc1O`, the Activity (HEK293) was “Non-toxic”, the Activity (Raji) was “Non-toxic” and the Activity (HepG2) was “Non-toxic”. For the same compound, the selectivity ratio [1] was greater than 10 and the Activity (BJ) was “Non-toxic”.
In the case of `Cl.O=C(CCc1ccccc1)c1ccccc1O`, the Activity (HEK293) was “Non-toxic”, the Activity (Raji) was “Non-toxic” and the Activity (HepG2) was “Non-toxic”. The selectivity ratio [1] was greater than 10 and the Activity (BJ) was “Non-toxic”.
In the case of `Cl.O=C(CCc1ccccc1)c1cc(F)ccc1O`, the Activity (HEK293) was “Non-toxic”, the Activity (Raji) was “Non-toxic” and the Activity (HepG2) was “Non-toxic”. For the same compound, the selectivity ratio [1] was greater than 10 and the Activity (BJ) was “Non-toxic”.
For `Cl.O=C(CCc1ccc(F)cc1)c1ccccc1O`, the Activity (HEK293) was “Non-toxic”, the Activity (Raji) was “Non-toxic” and the Activity (HepG2) was “Non-toxic”. The selectivity ratio [1] was greater than 10 and the Activity (BJ) was “Non-toxic”.
For `Cl.O=C(CCc1ccc(F)cc1)c1cc(F)ccc1O`, the Activity (HEK293) was “Non-toxic”, the Activity (Raji) was “Non-toxic” and the Activity (HepG2) was “Non-toxic”. The selectivity ratio [1] was greater than 10 and the Activity (BJ) was “Non-toxic”.
With `Cc1ccccc1N1CCN(CC(O)COc2ccc(F)cc2C(=O)CCc2ccc(F)cc2)CC1.Cl` (racemic) the Activity (HEK293) was “Non-toxic”, the Activity (Raji) was “Non-toxic” and the Activity (HepG2) was “Non-toxic”. For the same compound, the selectivity ratio [1] was greater than 10 and the Activity (BJ) was “Non-toxic”.
For `Cc1cccc(N2CCN(CC(O)COc3ccc(F)cc3C(=O)CCc3ccc(F)cc3)CC2)c1.Cl` (racemic), the Activity (HEK293) was “Non-toxic”, the Activity (Raji) was “Non-toxic” and the Activity (HepG2) was “Non-toxic”. For the same compound, the selectivity ratio [1] was greater than 10 and the Activity (BJ) was “Non-toxic”.
For `Cc1ccc(N2CCN(CC(O)COc3ccc(F)cc3C(=O)CCc3ccc(F)cc3)CC2)cc1.Cl` (racemic), the Activity (HEK293) was “Non-toxic”, the Activity (Raji) was “Non-toxic” and the Activity (HepG2) was “Non-toxic”. For the same compound, the selectivity ratio [1] was greater than 10 and the Activity (BJ) was “Non-toxic”.
With `COc1ccccc1N1CCN(CC(O)COc2ccc(F)cc2C(=O)CCc2ccc(F)cc2)CC1.Cl` (racemic) the Activity (HEK293) was “Non-toxic”, the Activity (Raji) was “Non-toxic” and the Activity (HepG2) was “Non-toxic”. For the same compound, the selectivity ratio [1] was greater than 10 and the Activity (BJ) was “Non-toxic”.
In the case of `COc1cccc(N2CCN(CC(O)COc3ccc(F)cc3C(=O)CCc3ccc(F)cc3)CC2)c1.Cl` (racemic), the Activity (HEK293) was “Non-toxic”, the Activity (Raji) was “Non-toxic” and the Activity (HepG2) was “Non-toxic”. The selectivity ratio [1] was greater than 10 and the Activity (BJ) was “Non-toxic”.
With `COc1ccc(N2CCN(CC(O)COc3ccc(F)cc3C(=O)CCc3ccc(F)cc3)CC2)cc1.Cl` (racemic) the Activity (HEK293) was “Non-toxic”, the Activity (Raji) was “Non-toxic” and the Activity (HepG2) was “Non-toxic”. The selectivity ratio [1] was greater than 10 and the Activity (BJ) was “Non-toxic”.
With `Cl.O=C(CCc1ccc(F)cc1)c1cc(F)ccc1OCC(O)CN1CCN(c2ccccc2Cl)CC1` (racemic) the Activity (HEK293) was “Non-toxic”, the Activity (Raji) was “Non-toxic” and the Activity (HepG2) was “Non-toxic”. The selectivity ratio [1] was greater than 10 and the Activity (BJ) was “Non-toxic”.
With `Cl.O=C(CCc1ccc(F)cc1)c1cc(F)ccc1OCC(O)CN1CCN(c2ccc(Cl)cc2)CC1` (racemic) the Activity (HEK293) was “Non-toxic”, the Activity (Raji) was “Non-toxic” and the Activity (HepG2) was “Non-toxic”. For the same compound, the selectivity ratio [1] was greater than 10 and the Activity (BJ) was “Non-toxic”.
With `Cl.O=C(CCc1ccc(F)cc1)c1cc(F)ccc1OCC(O)CN1CCN(c2ccc(Cl)c(Cl)c2)CC1` (racemic) the Activity (HEK293) was “Non-toxic”, the Activity (Raji) was “Non-toxic” and the Activity (HepG2) was “Non-toxic”. The selectivity ratio [1] was greater than 10 and the Activity (BJ) was “Non-toxic”.
For `Cl.O=C(CCc1ccc(F)cc1)c1cc(F)ccc1OCC(O)CN1CCN(c2ccccc2F)CC1` (racemic), the Activity (HEK293) was “Non-toxic”, the Activity (Raji) was “Non-toxic” and the Activity (HepG2) was “Non-toxic”. For the same compound, the selectivity ratio [1] was greater than 10 and the Activity (BJ) was “Non-toxic”.
For `Cl.O=C(CCc1ccc(F)cc1)c1cc(F)ccc1OCC(O)CN1CCN(c2ccc(F)cc2)CC1` (racemic), the Activity (HEK293) was “Non-toxic”, the Activity (Raji) was “Non-toxic” and the Activity (HepG2) was “Non-toxic”. The selectivity ratio [1] was greater than 10 and the Activity (BJ) was “Non-toxic”.
In the case of `Cl.O=C(CCc1ccc(F)cc1)c1cc(F)ccc1OCC(O)CN1CCN(c2ccc([N+](=O)[O-])cc2)CC1` (racemic), the Activity (HEK293) was “Non-toxic”, the Activity (Raji) was “Non-toxic” and the Activity (HepG2) was “Non-toxic”. The selectivity ratio [1] was greater than 10 and the Activity (BJ) was “Non-toxic”.
In the case of `Cl.Nc1ccc(N2CCN(CC(O)COc3ccc(F)cc3C(=O)CCc3ccc(F)cc3)CC2)cc1` (racemic), the Activity (HEK293) was “Non-toxic”, the Activity (Raji) was “Non-toxic” and the Activity (HepG2) was “Non-toxic”. For the same compound, the selectivity ratio [1] was greater than 10 and the Activity (BJ) was “Non-toxic”.
With `Cl.O=C(CCc1ccc(F)cc1)c1cc(F)ccc1OCC(O)CN1CCN(c2ccc(O)cc2)CC1` (racemic) the Activity (HEK293) was “Non-toxic”, the Activity (Raji) was “Non-toxic” and the Activity (HepG2) was “Non-toxic”. For the same compound, the selectivity ratio [1] was greater than 10 and the Activity (BJ) was “Non-toxic”.
With `Cl.O=C(CCc1ccc(F)cc1)c1cc(F)ccc1OCC(O)CN1CCN(c2ccc(C(F)(F)F)cc2)CC1` (racemic) the Activity (HEK293) was “Non-toxic”, the Activity (Raji) was “Non-toxic” and the Activity (HepG2) was “Non-toxic”. For the same compound, the selectivity ratio [1] was greater than 10 and the Activity (BJ) was “Non-toxic”.
In the case of `Cl.O=C(CCc1ccc(F)cc1)c1cc(F)ccc1OCC(O)CN1CCN(C(=O)c2ccccc2)CC1` (racemic), the Activity (HEK293) was “Non-toxic”, the Activity (Raji) was “Non-toxic” and the Activity (HepG2) was “Non-toxic”. The selectivity ratio [1] was greater than 10 and the Activity (BJ) was “Non-toxic”.
In the case of `Cl.O=C(CCc1ccc(F)cc1)c1cc(F)ccc1OCC(O)CN1CCN(C(c2ccccc2)c2ccccc2)CC1` (racemic), the Activity (HEK293) was “Non-toxic”, the Activity (Raji) was “Non-toxic” and the Activity (HepG2) was “Non-toxic”. The selectivity ratio [1] was greater than 10 and the Activity (BJ) was “Non-toxic”.
With `CN1CCN(CC(O)COc2ccc(F)cc2C(=O)CCc2ccc(F)cc2)CC1.Cl` (racemic) the Activity (HEK293) was “Non-toxic”, the Activity (Raji) was “Non-toxic” and the Activity (HepG2) was “Non-toxic”. For the same compound, the selectivity ratio [1] was greater than 10 and the Activity (BJ) was “Non-toxic”.
For `CCN1CCN(CC(O)COc2ccc(F)cc2C(=O)CCc2ccc(F)cc2)CC1.Cl` (racemic), the Activity (HEK293) was “Non-toxic”, the Activity (Raji) was “Non-toxic” and the Activity (HepG2) was “Non-toxic”. For the same compound, the selectivity ratio [1] was greater than 10 and the Activity (BJ) was “Non-toxic”.
For `Cl.O=C(CCc1ccc(F)cc1)c1cc(F)ccc1OCC(O)CN1CCOCC1` (racemic), the Activity (HEK293) was “Non-toxic”, the Activity (Raji) was “Non-toxic” and the Activity (HepG2) was “Non-toxic”. For the same compound, the selectivity ratio [1] was greater than 10 and the Activity (BJ) was “Non-toxic”.
For `Cl.O=C(CCc1ccccc1)c1ccccc1OCC(O)Cn1ccc2ccccc21` (racemic), the Activity (HEK293) was “Non-toxic”, the Activity (Raji) was “Non-toxic” and the Activity (HepG2) was “Non-toxic”. For the same compound, the selectivity ratio [1] was greater than 10 and the Activity (BJ) was “Non-toxic”.
In the case of `CC(C)c1nccn1CC(O)COc1ccccc1C(=O)CCc1ccccc1.Cl` (racemic), the Activity (HEK293) was “Non-toxic”, the Activity (Raji) was “Non-toxic” and the Activity (HepG2) was “Non-toxic”. The selectivity ratio [1] was greater than 10 and the Activity (BJ) was “Non-toxic”.
With `Cl.O=C(CCc1ccccc1)c1ccccc1OCC(O)CC1CCCC1` (racemic) the Activity (HEK293) was “Non-toxic”, the Activity (Raji) was “Non-toxic” and the Activity (HepG2) was “Non-toxic”. For the same compound, the selectivity ratio [1] was greater than 10 and the Activity (BJ) was “Non-toxic”.
For `Cl.O=C(CCc1ccc(F)cc1)c1ccccc1OCC(O)Cn1ccc2ccccc21` (racemic), the Activity (HEK293) was “Non-toxic”, the Activity (Raji) was “Non-toxic” and the Activity (HepG2) was “Non-toxic”. For the same compound, the selectivity ratio [1] was greater than 10 and the Activity (BJ) was “Non-toxic”.
In the case of `CC(C)c1nccn1CC(O)COc1ccccc1C(=O)CCc1ccc(F)cc1.Cl` (racemic), the Activity (HEK293) was “Non-toxic”, the Activity (Raji) was “Non-toxic” and the Activity (HepG2) was “Non-toxic”. For the same compound, the selectivity ratio [1] was greater than 10 and the Activity (BJ) was “Non-toxic”.
In the case of `Cl.O=C(CCc1ccc(F)cc1)c1ccccc1OCC(O)CC1CCCC1` (racemic), the Activity (HEK293) was “Non-toxic”, the Activity (Raji) was “Non-toxic” and the Activity (HepG2) was “Non-toxic”. The selectivity ratio [1] was greater than 10 and the Activity (BJ) was “Non-toxic”.
For `Cl.O=C(CCc1ccccc1)c1cc(F)ccc1OCC(O)Cn1ccc2ccccc21` (racemic), the Activity (HEK293) was “Non-toxic”, the Activity (Raji) was “Non-toxic” and the Activity (HepG2) was “Non-toxic”. The selectivity ratio [1] was greater than 10 and the Activity (BJ) was “Non-toxic”.
For `CC(C)c1nccn1CC(O)COc1ccc(F)cc1C(=O)CCc1ccccc1.Cl` (racemic), the Activity (HEK293) was “Non-toxic”, the Activity (Raji) was “Non-toxic” and the Activity (HepG2) was “Non-toxic”. For the same compound, the selectivity ratio [1] was greater than 10 and the Activity (BJ) was “Non-toxic”.
In the case of `Cl.O=C(CCc1ccccc1)c1cc(F)ccc1OCC(O)CC1CCCC1` (racemic), the Activity (HEK293) was “Non-toxic”, the Activity (Raji) was “Non-toxic” and the Activity (HepG2) was “Non-toxic”. For the same compound, the selectivity ratio [1] was greater than 10 and the Activity (BJ) was “Non-toxic”.
For `Cl.O=C(CCc1ccc(F)cc1)c1cc(F)ccc1OCC(O)Cn1ccc2ccccc21` (racemic), the Activity (HEK293) was “Non-toxic”, the Activity (Raji) was “Non-toxic” and the Activity (HepG2) was “Non-toxic”. For the same compound, the selectivity ratio [1] was greater than 10 and the Activity (BJ) was “Non-toxic”.
In the case of `CC(C)c1nccn1CC(O)COc1ccc(F)cc1C(=O)CCc1ccc(F)cc1.Cl` (racemic), the Activity (HEK293) was “Non-toxic”, the Activity (Raji) was “Non-toxic” and the Activity (HepG2) was “Non-toxic”. For the same compound, the selectivity ratio [1] was greater than 10 and the Activity (BJ) was “Non-toxic”.
With `Cl.O=C(CCc1ccc(F)cc1)c1cc(F)ccc1OCC(O)CC1CCCC1` (racemic) the Activity (HEK293) was “Non-toxic”, the Activity (Raji) was “Non-toxic” and the Activity (HepG2) was “Non-toxic”. For the same compound, the selectivity ratio [1] was greater than 10 and the Activity (BJ) was “Non-toxic”.
